The record followed here is US11926826B2, “Twist signaling inhibitor compositions and methods of using the same” (City of Hope, priority 2016, dated 2024).

For data set [1], the system named is TWIST. Description: TWIST knockdown after MSN delivery of siRNA in ovarian cancer cell lines. To be noted: A2780R and Ovcar8; loaded onto MSNs. Type of data set: cell-based. As for the experimental part: MSN design and delivery. Mesoporous silica nanoparticles (MSNs) were synthesized utilizing the sol-gel method as described previously. First, 250 mg 95% cetyltrimethylammonium bromide (CTAB) was dissolved in 120 ml of water with 875 μl 2M sodium hydroxide solution, at 80° C. Next, 1.2 ml of 98% tetraethylorthosilicate was added. After 15 min, 300 μl of 42% 3-(trihydroxysilyl) propyl methylphosphonate was added, and the mixture was stirred 2 hr. Particles were collected using centrifugation and washed with methanol. Acidic methanol was then used to remove any remaining CTAB surfactants. Zeta potential at 50 μg/mL was 43.75 mV [14]. All chemicals were obtained from Aldrich (St. Louis, MO). Particles were ˜120 nm in diameter, with 2.5 nm pores. Low molecular weight (1.8 kD branched polymer) polyethyleneimine (PEI) was electrostatically attached to the particle surface to provide a positive change to attract negatively charged siRNA [21]. To complex siRNA for in vitro experiments, 10 μl siRNA at 10 μM was mixed with 70 ul MSNs at 500 μg/ml and 20 μl water, and the mixture was incubated overnight at 4° C. on a roller. The following day, 100 μl of the MSN-siRNA complexes was added to each well of a 6-well plate containing 1900 μl normal medium.
(§1) Western Blotting. Following siRNA treatment, cells were pelleted and lysed in RIPA buffer. Protein concentration was determined by BCA assay (Thermo Fisher). Following SDS-PAGE, protein was transferred to Amersham PVDF membrane (Genesee Scientific) using a BioRad Trans-Blot SD semi-dry transfer unit. Blots were then blocked in milk for one hour at room temperature or overnight at 4° C. Incubation with primary antibody took place for one hour at room temperature or overnight at 4° C. Antibodies were diluted in 5% milk, with 0.1-0.2% Tween-20. Antibodies used were TWIST 2c1a (Santa Cruz Biotechnology, Dallas, TX) at 1:250-1:500 dilution, β-Actin, A1978 (Sigma Aldrich, St. Louis, MO) at 1:2500-1:5000 dilution; and Horseradish Peroxidase (HRP) conjugated anti-mouse secondary antibodies. […]

In data set [2] the test system is TWIST. Description: TWIST knockdown after Lipofectamine 2000 transfection in A2780R (western blot). To be noted: over three days post transfection. It counts as cell-based. How it is done: Cell Culture. A2780R and all derivatives of Ovcar8 were grown in RPMI 1640 (Genesee Scientific, San Diego, CA) in a tissue culture incubator at 37° C., 5% CO2, and 90% humidity. Growth medium was supplemented with 10% fetal bovine serum and 1% penicillin/streptomycin. Cells were passaged every 2-4 days using 0.25% trypsin (Genesee Scientific). Where indicated, cells were transfected with Lipofectamine 2000 (Thermo Fisher, Waltham, MA) according to the manufacturer's instructions. A2780R cells are a cisplatin resistant derivative of A2780.
as §1
For orientation: In western blotting, separated proteins are transferred to a membrane and probed.

For the next data set, the system named is TWIST1. Description: TWIST1 knockdown after Lipofectamine 2000 transfection in SUM 1315. Type of data set: cell-based, human. As for the experimental part: Cell Culture, Transfection, and Stable Cell Line Production. SUM 1315 breast cancer cells were obtained from ATCC (Manassas, VA). Cells were maintained at 37° C., 5% CO2, and 90% humidity in a tissue culture incubator. Media for SUM 1315 cells consisted of a 50-50 mixture of DMEM and F12 media, supplemented with 5 μg/ml insulin, 10 ng/ml EGF, 5% fetal bovine serum, and 1% penicillin/streptomycin. Cells were passaged using 0.25% trypsin (Genesee Scientific, San Diego, CA) every 2-3 days as they reached confluency. […]
Quantitative PCR. […] RNA quantity and quality was measured and analyzed (with 260/280 nm and 260/230 nm spectra measurements) using a NanoDrop ND-1000 (Thermo Fisher Scientific, Waltham, MA). […] Quantitative RT-PCR was performed in quadruplicate using Maxima SYBR Green Master Mix (Thermo Fisher Scientific, Waltham, MA) in 25 μl reactions. […] Data were analyzed using Bio-Rad iQ5 software using the 2^−ΔΔ^Ct method and normalized to Actin. […]
Western Blot. […] Cells were pelleted, lysed in RIPA buffer, and protein concentration was determined using the BCA Assay (Thermo Fisher Scientific, Waltham, MA). […]

As to “si419: anti-TWIST siRNA; passenger 5′-GGACAAGCUGAGCAAGAUU-3′ (SEQ ID No: 1), guide 5′-AAUCUUGCUCAGCUUGUCCUU-3′ (SEQ ID No: 2) (listed as RNA, chemistry not fully specified)”, the TWIST knockdown entry in the data set with TWIST [1] was “robust TWIST knockdown lasting one week post transfection”. In the data set on TWIST [2], the TWIST expression entry is on record as “completely inhibit TWIST expression”. Further, the “TWIST1 knockdown (protein and mRNA)” value with TWIST1 was “knockdown of TWIST1”.
